The test system of series [1] is male Swiss Albino mice. Nature of the series: Forelimb grip strength test. The format is in vivo. The method, then: After one week of acclimation, the animals were randomly divided by body weight into five groups (n=8 per group in each test) for oral treatment once a day, at approximately same time each day (±1 hour), for 28 consecutive days: (1) vehicle control; (2) paraxanthine (3) L-theanine; […] The dose administered to the mice was calculated using US Food and Drug Administration for human equivalence doses (HED), assuming a human weight of 60 kg. […] Dosing was conducted via oral gavage using disposable polypropylene syringes with sterilized stainless steel gavage tubes. The food intake and water consumption were monitored daily, and BW was recorded weekly. The last dose on day 28 was given 1 hour prior to testing. The forelimb grip strength was measured on day 0 and day 28 by using a stainless-steel grill to assess muscle strength (Orchid Scientific & Innovative India Pvt Ltd, India). Grip strength was measured one hour after treatment. Briefly, each mouse was placed on a grill chamber and the steel bar is inverted; grip strength is measured by recording the time each animal holds the steel bar. The maximum time for each trial was six minutes. Each animal performed three independent trials separated by six minutes intervals and the mean of the three trials was calculated.

Series [2] can be described thus: Body weight during 28-day oral supplementation. The class given is in vivo, Swiss Albino mice. The following applies: mean ± SD, n = 8 mice. As for the experimental part: (§1) Forty 8-week-old male Swiss Albino mice were housed in an animal room at a constant temperature (22±3° C.) and humidity (30%-70%) under a 12:12 h light-dark cycle with standard laboratory diet (Purina 5L79, Rat and Mouse 18% protein; PMI Nutrition International, Brentwood, Mo., USA). Distilled water was provided ad libitum. All animal experiments were reviewed and approved by the Institutional Animal Ethical Committee (IAEC) of Radiant Research Services Pvt. Ltd (Bangalore, India). All research was conducted in accordance with the guidelines of the committee for the purpose of control and supervision of experiments on animals (CPCSEA Registration Number-1803/PO/RcBi/S/2015/CPCSEA).
(§2) After one week of acclimation, the animals were randomly divided by body weight into five groups (n=8 per group in each test) for oral treatment once a day, at approximately same time each day (±1 hour), for 28 consecutive days: (1) vehicle control; (2) paraxanthine (3) L-theanine; (4) alpha-GPC; and (5) taurine. The dose administered to the mice was calculated using US Food and Drug Administration for human equivalence doses (HED), assuming a human weight of 60 kg. The following HED were used in this study: 100 mg paraxanthine, (ENFINITY™, Ingenious Ingredients, L.P Lewisville, Tex., USA; mouse dose: 20.5 mg/kg bw/day); 200 mg alpha-GPC mg (YangLing Daily Health Bio-Engineering Technology Co., Ltd; mouse dose: 41.09 mg/kg bw), 50 mg L-theanine (Hangzhou Qinyuan Natural Plant High-tech Co., Ltd; mouse dose: 10.28 mg/kg bw), and 500 mg taurine (Jiangyin Huachang Food Additive Co., Ltd; mouse dose: 102.75 mg/kg bw). 0.5% Carboxy Methyl Cellulose sodium was used as vehicle and the test item formulations were prepared daily. Dosing was conducted via oral gavage using disposable polypropylene syringes with sterilized stainless steel gavage tubes. The food intake and water consumption were monitored daily, and BW was recorded weekly. The last dose on day 28 was given 1 hour prior to testing.

Series [3] relates to male Swiss Albino mice. Nature of the series: Muscle weight (gastrocnemius, soleus) after 28 days. The class given is in vivo. As to conditions: after 28 days of supplementation; vs vehicle control. The method, then: (§3) (2) paraxanthine (3) L-theanine; […] The dose administered to the mice was calculated using US Food and Drug Administration for human equivalence doses (HED), assuming a human weight of 60 kg. […] Dosing was conducted via oral gavage using disposable polypropylene syringes with sterilized stainless steel gavage tubes. The food intake and water consumption were monitored daily, and BW was recorded weekly. The last dose on day 28 was given 1 hour prior to testing. All animals were euthanized by 95% CO2 after 28 days of following their assigned treatment. Blood was collected immediately after euthanization by the retro-orbital route and was immediately centrifuged at 1500×g for 10 min at 4° C. before having all serum transferred into cryogenic tubes and stored at -80° C. The liver, heart, gastrocnemius and soleus were excised and weighed.

The test system of series [4] is male Swiss Albino mice. Nature of the series: Treadmill endurance test. The format is in vivo. As for the experimental part: (2) paraxanthine (3) L-theanine; […] The dose administered to the mice was calculated using US Food and Drug Administration for human equivalence doses (HED), assuming a human weight of 60 kg. […] Dosing was conducted via oral gavage using disposable polypropylene syringes with sterilized stainless steel gavage tubes. The food intake and water consumption were monitored daily, and BW was recorded weekly. The last dose on day 28 was given 1 hour prior to testing. […] All animals were adapted to this procedure daily 60 minutes after dosing for five days in a week during the treatment period. On 28th day of each respective treatment, all animals were subjected to a muscle endurance test. […] Animals were subjected to the treadmill test until exhaustion. Distance traveled (cm) was measured as a marker of exercise performance.

Another series relates to Nitric oxide. Nature of the series: Serum nitric oxide ELISA. The following applies: serum after 28 days of treatment; mean ± SD, n = 8. The format is in vivo, Swiss Albino mice. The method, then:
(§4) After one week of acclimation, the animals were randomly divided by body weight into five groups (n=8 per group in each test) for oral treatment once a day, at approximately same time each day (±1 hour), for 28 consecutive days: (1) vehicle control; (2) paraxanthine (3) L-theanine; […] The dose administered to the mice was calculated using US Food and Drug Administration for human equivalence doses (HED), assuming a human weight of 60 kg. […] Dosing was conducted via oral gavage using disposable polypropylene syringes with sterilized stainless steel gavage tubes. The food intake and water consumption were monitored daily, and BW was recorded weekly. The last dose on day 28 was given 1 hour prior to testing. All animals were euthanized by 95% CO2 after 28 days of following their assigned treatment. Blood was collected immediately after euthanization by the retro-orbital route and was immediately centrifuged at 1500×g for 10 min at 4° C. before having all serum transferred into cryogenic tubes and stored at -80° C. The liver, heart, gastrocnemius and soleus were excised and weighed. Collected serum was analyzed for clinical biochemical variables including aspartate aminotransaminase (AST), alanine aminotransaminase (ALT), alkaline phosphatase (ALP), uric acid (UA), creatinine, total cholesterol (TC), triglycerides (TG), high-density lipoproteins (HDL), and low-density lipoproteins (LDL) were measured using an auto analyzer (EM360, ERBA Diagnostics Mannheim GmbH, Mannheim, Germany). Nitric oxide was analyzed using standard ELISA assay kits (Lot No: E-BC-[…], Elabscience, Houston, Tex., USA).
(An ELISA detects its analyte on a solid surface through an enzyme-linked reagent.)

A short description of series [5]: Clinical biochemical profiles of serum. The class given is in vivo, Swiss Albino mice. The following applies: serum at end of 28-day treatment; mean ± SD, n = 8. As for the experimental part:
as §4

Series [6] can be described thus: Liver and heart mass / gross pathology. The class given is in vivo, Swiss Albino mice. As to conditions: after 28 days of treatment; mean ± SD, n = 8. As for the experimental part: as §3
The nature of series [7]: Feed consumption during 28-day oral supplementation. The format is in vivo, Swiss Albino mice. As to conditions: mean ± SD, n = 8 mice. As for the experimental part:
as §1, §2

As for `NCCS(=O)(=O)O` [Taurine, taurine], the “Baseline forelimb grip strength” value in the series with male Swiss Albino mice [1] (day 0 baseline, time holding steel bar, mean of three trials) worked out at 90.94±0.85. In addition, the “increase in forelimb grip strength compared to control” value in the series with male Swiss Albino mice [1] (day 28, one hour after oral treatment, vs vehicle control) is listed as “failed to reach statistical significance”. The body weight in series [2] (Basal) was found to be 22.50 ± 0.49 grams; in series [2] (Week 1, oral once daily), 24.08 ± 0.66 grams; in series [2] (Week 2, oral once daily), 26.99 ± 0.82 grams; in series [2] (Week 3, oral once daily) it was 29.06 ± 0.69 grams; in series [2] (Week 4, oral once daily), 32.34 ± 3.06 grams. The “increase in gastrocnemius muscle mass compared to control” value in the series with male Swiss Albino mice [3] is “no effect on muscle mass”. The “increase in soleus muscle mass compared to control” value in the series on male Swiss Albino mice [3] is on record as “no effect on muscle mass”. Besides, in the series with male Swiss Albino mice [4] (after 28 days of supplementation, run until exhaustion, mean ± SD, n=8), the “Distance traveled on treadmill” value is 1,671±125 centimeters. Also, the “increase in distance traveled during treadmill exercise compared to control” value with male Swiss Albino mice [4] (after 28 days of supplementation, vs vehicle control) is “did not increase treadmill performance”. Further, the “Baseline treadmill performance (distance)” value with male Swiss Albino mice [4] (baseline, mean ± SD) was 256.9±29.3 cm. For the same compound, the “Nitric Oxide” value in the series on Nitric oxide is recorded as 7.56 ± 0.29 ng/mL. This compound displayed an ALP in series [5] of 180.4 ± 5.42 U/L. Also, in series [5], the ALT is 25.00 ± 1.07 U/L. The AST in series [5] is 40.13 ± 2.36 U/L. The Creatinine in series [5] is given as 0.93 ± 0.14 mg/dL. In series [5], this compound came in with a Urea of 29.38 ± 1.60 mg/dL. The same compound registered a Heart mass in series [6] of 190 ± 1.2 mg. For the same compound, the Liver mass in series [6] is reported as 1,834 ± 52 mg. Moreover, the feed consumption came to 40.95 ± 0.60 grams in series [7] (Week 1), 43.21 ± 1.25 grams in series [7] (Week 2), 45.21 ± 1.15 grams in series [7] (Week 3) and 47.36 ± 1.08 grams in series [7] (Week 4).

The values above are taken from patent US20230165868A1, “PARAXANTHINE-BASED COMPOSITIONS FOR ENHANCING MUSCLE FUNCTION, NITRIC OXIDE SIGNALING, AND/OR MUSCLE GLYCOGEN LEVELS” (Ingenious Ingredients, LP, priority 2021, published 2023).
